The supplement of paper PMC10307832

Key:
Experiment in all cases: relative viability (nuclei count vs DMSO), 5 days (fraction); higher = more cells survive
Wnt-C59 + Luminespib = compound: CC1=NC=CC(=C1)C2=CC=C(C=C2)CC(=O)NC3=CC=C(C=C3)C4=CN=CC=C4 [Wnt-C59] + CCNC(=O)c1noc(-c2cc(C(C)C)c(O)cc2O)c1-c1ccc(CN2CCOCC2)cc1 [Luminespib] (partner 0.01 µM)
Outline: (§1)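 Lung cancer cell lines were seeded in 1536-well plates and dosed by pin tool the next day, with either a single drug or a fixed anchor-drug dose combined with five library-drug doses (not always all listed) spaced in √10 steps. Five days later, one step fixed the cells and stained their nuclei (final 0.05% Triton X-100, 1% formaldehyde, 1 ug/ml Hoechst), and nuclei were counted on 4× images. Relative viability is the nuclei count in treated wells divided by the count in vehicle wells, and each value is the median of duplicate plates.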

Wnt-C59 + OSI-027 = compound: CC1=NC=CC(=C1)C2=CC=C(C=C2)CC(=O)NC3=CC=C(C=C3)C4=CN=CC=C4 [Wnt-C59] + COc1cccc2cc(-c3nc([C@H]4CC[C@H](C(=O)O)CC4)n4ncnc(N)c34)[nH]c12 [OSI-027] (partner 0.5 µM)
Outline: as §1

Lapatinib = compound: CS(=O)(=O)CCNCc1ccc(-c2ccc3ncnc(Nc4ccc(OCc5cccc(F)c5)c(Cl)c4)c3c2)o1 [Lapatinib]
Outline: (§2)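 Hoechst staining, done together with fixation and permeabilisation, marked nuclei for 4× imaging and MetaXpress counting. This followed 5 days without medium change after lung cancer cell lines, kept overnight at 37 °C in 1536-well plates, were pinned with five library-drug doses (not always all listed) spaced by √10 on vehicle-anchored plates. Viability is the ratio of treated-well to vehicle-well nuclei, expressed as a median across plates. Plates passed only at control CV below 25% with at least one doubling.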

Wnt-C59 = compound: CC1=NC=CC(=C1)C2=CC=C(C=C2)CC(=O)NC3=CC=C(C=C3)C4=CN=CC=C4 [Wnt-C59]
Outline: as §2

Cell Line	relative viability (Wnt-C59 + Luminespib; first compound 0.001 µM)	relative viability (Wnt-C59 + Luminespib; first compound 0.01 µM)	relative viability (Wnt-C59 + Luminespib; first compound 0.03162 µM)	relative viability (Wnt-C59 + Luminespib; first compound 0.1 µM)	relative viability (Wnt-C59 + OSI-027; first compound 0.001 µM)	relative viability (Wnt-C59 + OSI-027; first compound 0.01 µM)	relative viability (Wnt-C59 + OSI-027; first compound 0.03162 µM)	relative viability (Wnt-C59 + OSI-027; first compound 0.1 µM)	relative viability (Lapatinib; 0.02 µM)	relative viability (Lapatinib; 0.06325 µM)	relative viability (Lapatinib; 0.2 µM)	relative viability (Lapatinib; 0.6325 µM)	relative viability (Lapatinib; 2 µM)	relative viability (Wnt-C59; 0.001 µM)	relative viability (Wnt-C59; 0.01 µM)	relative viability (Wnt-C59; 0.03162 µM)	relative viability (Wnt-C59; 0.1 µM)	relative viability (Lapatinib; 2 µM, anchor plate)
NCI-H2342	0.692	0.658	0.806	0.809	0.57	0.527	0.646	0.613	0.742	0.825	0.798	0.86	0.856	1.01	1	0.989	1.03	
NCI-H1623	0.594	0.413	0.544	0.481	0.429	0.383	0.416	0.453	0.856	0.649	0.576	0.728	0.328	0.948	0.812	1.02	0.994	
ABC-1	1.18	0.807	0.736	0.598	0.441	0.597	0.435	0.389	0.721	0.793	0.939	1.04	0.912	0.938	1.01	1.01	0.952	1.18
NCI-H2170	0.583	0.722	0.758	0.655	0.748	0.468	0.872	0.491	0.953	0.913	0.762	0.72	0.332	0.997	0.879	0.939	0.975	0.276
NCI-H650	0.752	0.751	0.865	0.718	0.581	0.661	0.485	0.532		0.912	0.919	1.04	0.831	0.886	0.952	1.03	0.974	0.926
LOU-NH91	0.375	0.284	0.298	0.348	0.76	0.571	0.718	0.738	0.569	0.785	0.844	0.844	0.74	0.978	0.892	0.955	1.04	0.799
NCI-H2023	0.775	0.757	0.785	0.702	0.475	0.316	0.461	0.376	0.796	0.744	0.926	0.998	0.823	0.948	1.03	1.15	0.801	0.862
LC-2-ad	1.13	0.97	1.06	0.975	1.18	0.822	0.937	0.729		0.895	0.984	0.983	0.896	1.05	0.966	0.933	0.955	0.967
NCI-H1355	0.774	0.693	0.649	0.626	0.446	0.302	0.366	0.417		0.828	0.938	0.972	0.746	1.02	0.885	1.01	0.905	1
NCI-H2347	0.565	0.339	0.498	0.877	0.365	0.474	0.51	0.457	0.7	0.999	0.943	1.05	0.904	1.05	1.01	1.03	0.997	0.905
NCI-H441	0.428	0.247	0.276	0.407	0.754	0.616	0.718	0.568		0.735	0.995	1.09	1.36	1.11	1.22	1.1	0.993	
NCI-H1944	0.802	0.758	0.769	0.652	0.407	0.358	0.415	0.462	0.781	0.658	0.964	0.853	0.757	0.956	0.945	1.07	1.01	0.846
NCI-H661	0.904	0.911	0.972	0.912	0.719	0.699	0.803	0.758	0.987	0.919	0.957	0.822	0.705	0.961	1.01	1.08	0.99	0.52
201T	1.03	1.07	0.996	1.02	0.717	0.725	0.761	0.627	0.713	0.802	0.963	0.979	0.887	0.972	0.958	0.982	0.976	1.04
NCI-H2087	0.146	0.183	0.187	0.216	0.53	0.476	0.572	0.592	0.786	0.833	1.12	0.952	0.975	1.07	0.922	0.971	1.01	0.983
BEN	0.331	0.423	0.457	0.598	0.256	0.309	0.306	0.305	0.793	0.907	0.935	1	0.962	0.936	1	1.02	1.07	0.74
COR-L23	0.758	0.667	0.742	0.617	0.763	0.701	0.954	0.735	0.978	1	1.11	0.919	1.02	0.961	1.01	1.07	0.963	0.934
ChaGo-K-1	0.672	0.71	0.765	0.543	0.512	0.569	0.525	0.563	0.789	0.943	0.945	1	0.797	0.951	1.01	1.03	0.958	
